# In patent US10544090B2, “Anthraquinone analogs and methods of making and using thereof” (Georgia State University Research Foundation, Inc., priority 2012, dated 2020):
# Like-named read-outs stand apart in the source and are kept apart here.
# Columns and labels:
# KB = assay: MTT cytotoxicity assay, KB (Table 2); format: cell-based; details: 48 h incubation; for IC50: read-out: IC50 (μM) against KB
# Protocol: (§1) The in vitro cytotoxicity studies of the synthesized compounds were performed in three different cell lines (HeLa, Hek, and KB). The activities of the herein described analogues were compared to that of rhein itself and doxorubicin. Due to the poor solubility of the compounds, all of the solutions used for biological testing were prepared using DMSO as solvent.
# HeLa [1] = assay: MTT cytotoxicity evaluation of series 1 and 2 rhein analogues, HeLa (Tables 3, 4); format: cell-based; details: Homo sapiens, HeLa; MTT; Tables 3 and 4; read-out: IC50 (μM) against HeLa
# HeLa [2] = assay: MTT cytotoxicity assay, HeLa (Table 2); details: for IC50 / IC50 (μM) against HeLa: Table 2; for cytotoxicity against HeLa cells compared to rhein: in words
# Protocol: as §1
# Hek = assay: MTT cytotoxicity assay, Hek (Table 2); format: cell-based; details: for IC50: read-out: IC50 (μM) against Hek
# Protocol: as §1
# MOLT4 = assay: MTT cytotoxicity evaluation of series 1 and 2 rhein analogues, MOLT4 (Tables 3, 4); details: Homo sapiens, MOLT-4, read-out: IC50 (μM) against MOLT4
# human NBMM cells = assay: WST cytotoxic assay on normal bone marrow mononuclear cells; format: cell-based; details: concentration of 1-2 μM
# Protocol: FIGS. 2a-2i are graphs showing the cytotoxicity of various Rhein analogues. Acute lymphoblastic leukemia (ALL) cell lines EU-1 (p53 normal) and EU-8 (p53 null) as well as normal human BM stroma cells were incubated with different concentrations of Rhein analogues as indicated for 24 h. Viability of cells was detected by Water soluble Tetrazolium (WST) dye assay. Data represent the mean percentage ±SD of the surviving cells (as compared to untreated controls) from three independent experiments.
# The cytotoxic and inhibitory effects of the compounds described herein on normal human BM cells in vitro, as compared with doxorubicin was evaluated.
# DNA damage = assay: Comet images, mechanism of cancer cell death; format: cell-based
# mice = assay: Toxicity in mice; format: in vivo; details: single injection at a dose of 15/kg
# Protocol: FIG. 6 is a table showing the estimated treatment doses and maximum tolerated dose (MTD) of MG1 in mice as compared with doxorubicin.
# Toxicity was also evaluated in mice. […] Subsequently, a single injection of MG1 at a dose of 400 mg/kg was administered via injection.
# […]. Toxicity was also evaluated in mice. […] Subsequently, a single injection of MG1 at a dose of 400 mg/kg was administered via injection.
# [3] = Homo sapiens, HeLa, 48 h, read-out: IC50 (μM) against HeLa, MTT, 48 h incubation
# [4] = read-out: IC50 (μM) against HeLa, MTT, 48 h incubation
# [5] = Homo sapiens, HEK293, 48 h incubation
smiles,measurement,setting,value
"O=C(O)c1cc(O)c2c(c1)C(=O)c1cccc(O)c1C2=O [Rhein, reference compound]",IC50,KB,> 100 µM
same,IC50,"KB; Homo sapiens, KB, 48 h",≥ 100 µM
same,IC50,HeLa [1],> 100 µM
same,IC50,HeLa [2]; [3],100 µM
same,IC50,HeLa [2]; [4],> 100 µM
same,IC50,Hek; [5],> 100 µM
same,IC50,MOLT4,37 µM
"O=C(CBr)NCCCOCCOCCOCCCNC(=O)c1cc(O)c2c(c1)C(=O)c1cccc(O)c1C2=O [Compound 22, 1,8-Dihydroxy-3-(18′-bromo-aceta-6′,9′,12′-trioxa-2′,16′-tridecanediamido)-anthraquinone]",IC50,KB,9 µM
same,IC50,HeLa [2]; [4],7 µM
same,IC50,Hek; 48 h incubation,2.2 µM
"COc1cccc2c1C(=O)c1c(OC)cc(NC(=O)CI)cc1C2=O [Compound 14, 1,8-dimethoxy-3-(2′-iodo-acetamido)-anthraquinone]",IC50 (μM) against KB,KB,low micro molar
same,IC50,"KB; Homo sapiens, KB, 48 h",10 µM
same,IC50,HeLa [2]; [3],2.5 µM
same,IC50 (μM) against HeLa,"HeLa [2]; MTT, 48 h incubation",low micro molar
same,cytotoxicity against HeLa cells compared to rhein,HeLa [2],significant improvement
same,IC50 (μM) against Hek,Hek; 48 h incubation,low micro molar
same,IC50,Hek; [5],1.4 µM
"O=C(CCl)Nc1cc(O)c2c(c1)C(=O)c1cccc(O)c1C2=O [Compound 5, 1,8-Dihydroxy-3-(2′-chloro-acetamido)-anthraquinone]",IC50 (μM) against KB,KB,low micro molar
same,IC50,"KB; Homo sapiens, KB, 48 h",4.5 µM
same,IC50,HeLa [2]; [3],4 µM
same,IC50 (μM) against HeLa,"HeLa [2]; MTT, 48 h incubation",low micro molar
same,cytotoxicity against HeLa cells compared to rhein,HeLa [2],significant improvement
same,IC50 (μM) against Hek,Hek; 48 h incubation,low micro molar
same,IC50,Hek; [5],4 µM
"O=C(CCl)NCCCOCCOCCOCCCNC(=O)c1cc(O)c2c(c1)C(=O)c1cccc(O)c1C2=O [Compound 21, 1,8-Dihydroxy-3-(18′-chloro-aceta-6′,9′,12′-trioxa-2′,16′-tridecanediamido)-anthraquinone]",IC50,KB,21 µM
same,IC50,HeLa [2]; [4],14 µM
same,IC50,Hek; 48 h incubation,8 µM
"O=C(CI)NCCCOCCOCCOCCCNC(=O)c1cc(O)c2c(c1)C(=O)c1cccc(O)c1C2=O [Compound 23, 1,8-Dihydroxy-3-(18′-iodo-aceta-6′,9′,12′-trioxa-2′,16′-tridecanediamido)-anthraquinone]",IC50,KB,8 µM
same,IC50,HeLa [2]; [4],5.8 µM
same,IC50,Hek; 48 h incubation,4 µM
"COc1cccc2c1C(=O)c1c(OC)cc(NC(=O)CBr)cc1C2=O [Compound 13, 1,8-dimethoxy-3-(2′-bromo-acetamido)-anthraquinone]",IC50,"KB; Homo sapiens, KB, 48 h",38 µM
same,IC50,HeLa [2]; [3],8 µM
same,IC50,Hek; [5],2.3 µM
"O=C(CI)Nc1cc(O)c2c(c1)C(=O)c1cccc(O)c1C2=O [Compound 7, 1,8-Dihydroxy-3-(2′-iodo-acetamido)-anthraquinone]",IC50,"KB; Homo sapiens, KB, 48 h",9 µM
same,IC50,HeLa [1],17 µM
same,IC50,HeLa [2]; [3],10 µM
same,IC50,Hek; [5],2 µM
same,IC50,MOLT4,10 µM
"COc1cccc2c1C(=O)c1c(O)c3c(c(O)c1C2=O)C[C@@](O)(C(=O)CO)C[C@@H]3O[C@H]1C[C@H](N)[C@H](O)[C@H](C)O1 [Doxorubicin, reference compound]",IC50,"KB; Homo sapiens, KB",0.4 µM
same,human NBMM cells survived after treatment,human NBMM cells,40-50%
same,IC50,HeLa [1],0.98 µM
same,mechanism of cancer cell death (DNA damage),DNA damage,induces cancer cell death through DNA damage
same,IC50,HeLa [2]; [3],1.4 µM
same,IC50,HeLa [2]; [4],1.5 µM
same,IC50,Hek; [5],0.15 µM
same,death of mice,mice,death of all mice at day 7 due to cardiac toxicity
same,IC50,MOLT4,0.04 µM
"O=C(CCl)NCCCCNC(=O)c1cc(O)c2c(c1)C(=O)c1cccc(O)c1C2=O [Compound 17, 1,8-Dihydroxy-3-(9′-chloro-aceta-2′,7′diamido)-anthraquinone]",IC50,KB,19 µM
same,IC50,HeLa [2]; [4],16 µM
same,IC50,Hek; 48 h incubation,8 µM
"O=C(CBr)Nc1cc(O)c2c(c1)C(=O)c1cccc(O)c1C2=O [Compound 6, 1,8-Dihydroxy-3-(2′-bromo-acetamido)-anthraquinone]",IC50,"KB; Homo sapiens, KB, 48 h",15 µM
same,IC50,HeLa [2]; [3],40 µM
same,times more potent than rhein against HeLa,HeLa [2]; ratio of IC50 values,2.5 fold
same,IC50,Hek; [5],8 µM
